# Data as given in patent publication US20060018921A1, “Histone deacetylase inhibitors and cognitive applications” (priority 2004, published 2006).
# Entries after “also recorded” stand apart in the source; their conditions may differ.
# Key:
# histone H3 (Lys14) [1] = experiment: Acetylation of histone H3 in area CA1 after contextual fear conditioning; conditions: injection of MK-801 1 h prior to or SL327 immediately after training
# ERK2 [2] = experiment: P-ERK2 western blot of area CA1 after contextual fear conditioning; conditions: MK-801 300 μg/kg 1 h prior to training; SL327 100 mg/kg immediately after training
# [3] = test system: histone H4 (Lys5/Lys8/Lys12/Lys16); experiment: Acetylation of histone H4 in area CA1 after contextual fear conditioning; conditions: injection of MK-801 1 h prior to or SL327 immediately after training
# [4] = Contextual fear conditioning, freezing behavior; conditions: MK-801 300 μg/kg 1 h prior to training, vs saline
# [5] = mouse model; Takahashi et al., 1996; cited from earlier work
# ERK2 [6] = experiment: P-ERK2 western blot, acute hippocampal slices, area CA1; conditions: slices treated 1 h; PDA 3 μM, FSK 50 μM with 100 μM Ro20-1724, U0126 20 μM, PD98059 50 μM, 4αP 3 μM, dFSK 50 μM with 100 μM Ro20-1724, TSA
# histone H3 (Lys14) [7] = experiment: Acetylation of histone H3, acute hippocampal slices, area CA1; conditions: slices treated 1 h; PDA 3 μM, FSK 50 μM with 100 μM Ro20-1724, 4αP 3 μM, dFSK 50 μM with 100 μM Ro20-1724, U0126 20 μM, PD98059 50 μM, TSA 1.65 μM
# NMDA-Rs = experiment: NMDA-R mediated synaptic transmission in slices with CNQX; assay type: cell-based, Sprague-Dawley rats; conditions: TSA 1.65 μM over 3 h; CNQX 20 μM, ACSF with 4 mM CaCl2 and no MgCl2
# Procedure: In FIG. 8A, slices were exposed to the AMPA-R antagonist CNQX (20 μM) and perfused with an ACSF containing 4 mM CaCl2 and no MgCl2. The resulting field potentials represent NMDA-R mediated synaptic transmission (English and Sweatt, 1997). […] Representative traces immediately before (dashed) and 186 min after (solid) introduction of TSA are shown. Calibration bar indicates 5 msec and 1 mV. In FIG. 8B, slices were exposed to both TSA (1.65 μM) and the NMDA-R antagonist AP5 (50 μM) 20 min prior to LTP induction. After induction of LTP, the AP5 was washed out but slices were still exposed to TSA. Induction of LTP in the presence of TSA was blocked by AP5 (n=8, F[89,612]=0.5, p<1). […] In FIG. 8C, depolarization was measured during a 100 Hz tetanus in slices treated with either vehicle (0.05% EtOH, n=10) or TSA (1.65 μM, n=10) for 20 min. […]
# In another series of studies, the present inventors investigated the possibility that TSA was affecting properties of NMDA-Rs. To directly measure any long-term affects of TSA on NMDA-Rs, field potentials were recorded in the presence of the AMPA-R antagonist CNQX to isolate the NMDA-R-dependent component of synaptic transmission. […] To further explore the potential affects of TSA on synaptic transmission, we measured the depolarization that occurs during the 100 Hz tetanus used to induce LTP.
# animals deficient in CBP = conditions: infusion directly into the brain of animals deficient in CBP; Korzus et al., Alarcon et al. (2004); cited from earlier work
# [8] = test system: histone H4 (Lys5/Lys8/Lys12/Lys16); experiment: Acetylation of histone H4, acute hippocampal slices, area CA1; conditions: slices treated 1 h; TSA 1.65 μM
# [9] = test system: Schaffer-collateral synapses; experiment: Slice electrophysiology, basal synaptic transmission (baseline fEPSP, input/output, paired-pulse facilitation, tetanus depolarization); assay type: cell-based, Sprague-Dawley rats
# ras transformed cells = conditions: Taunton et al., 1996; cited from earlier work
structure (smiles),measurement,setting,value
C[C@]12N[C@H](Cc3ccccc31)c1ccccc12 [MK-801],increase in acetylation of histone H3 in area CA1 1 h after fear conditioning,histone H3 (Lys14) [1],inhibited the increase in H3 acetylation; also recorded: No change in H3 acetylation
same,increase in P-ERK2 in area CA1 1 h after fear conditioning,ERK2 [2],blocked the increase in P-ERK2; also recorded: inhibited the increase in P-ERK2
same,histone H4 acetylation in area CA1 after fear conditioning,[3],no effect on histone H4 acetylation
same,freezing behavior 24 h after contextual fear conditioning (contextual fear memory),[4],blocked; also recorded: less freezing behavior than animals injected with saline
"CC(/C=C/C(=O)NO)=C\[C@@H](C)C(=O)c1ccc(N(C)C)cc1 [TSA, trichostatin A]",immunosuppression,[5],induces immunosuppression in a mouse model
same,levels of P-ERK2,ERK2 [6],without affecting levels of P-ERK2; also recorded: no effect on P-ERK2
same,histone H3 acetylation,histone H3 (Lys14) [7],significantly increased acetylation of H3; also recorded: increased acetylation of histone H3
same,NMDA-R mediated synaptic transmission,NMDA-Rs,unaffected; also recorded: no short or long-term effects
same,performance in long-term memory tasks,animals deficient in CBP,improved the animals' performance in some long-term memory tasks
same,histone H4 acetylation,[8],increased the acetylation of histone H4; also recorded: significant effect on H4 acetylation
same,"input/output relationships and PPF, slices treated with DRB vs DRB and TSA","[9]; 20 min and 3 h after application, data not shown",no significant differences in basal synaptic transmission
same,"depolarization during 100 Hz tetanus, area under the curve",[9]; TSA 1.65 μM for 20 min vs vehicle 0.05% EtOH,No significant difference in area under the curve
same,input/output relationships,[9]; TSA for 20 min vs vehicle,no significant effect; also recorded: No significant differences
same,paired-pulse facilitation,[9]; TSA for 20 min vs vehicle,no significant effect; also recorded: unaffected
same,input/output relationships,[9]; TSA for 3 h vs vehicle,no significant effect; also recorded: No significant differences
same,paired-pulse facilitation,[9]; TSA for 3 h vs vehicle,no significant effect; also recorded: unaffected
same,baseline synaptic efficacy where LTP was not induced,"[9]; continuous TSA, up to 3 h after start of treatment",no effect on synaptic transmission in the absence of high-frequency stimulation; also recorded: no effect on baseline synaptic efficacy
same,hyperacetylation,ras transformed cells,induce hyperacetylation
same,morphology of ras transformed cells,ras transformed cells,cause reversion of ras transformed cells to normal morphology
